This is an account of results in ChEMBL document CHEMBL4312020, “Design, synthesis and biological evaluation of oseltamivir derivatives containing pyridyl group as potent inhibitors of neuraminidase for influenza A” (Eur J Med Chem, 2020).

Series [1] has as its target Neuraminidase (Influenza A virus (A/Puerto Rico/8/1934(H1N1))) (UniProt P03468). The settings on record: Influenza A virus (A/Anhui/1/2005(H5N1)); at 10 µM.
Series [2] shares this target. Conditions: Influenza A virus (A/Anhui/1/2005(H5N1)); at 100 µM.
For series [3] the target is unchanged. The settings on record: Influenza A virus (A/Anhui/1/2005(H5N1)); at 1 µM.
A short description of series [4]: Stability in human plasma assessed as compound remaining incubated for 120 mins by LC-MS/MS analysis. Format: ADME, cell-free. Conditions: read-out: Stability.
Series [5] is described as follows: Stability in human plasma assessed as compound remaining incubated for 60 mins by LC-MS/MS analysis. The settings on record: read-out: Stability. In kind it is ADME, cell-free.
The nature of series [6]: Stability in human plasma assessed as compound remaining incubated for 0 mins by LC-MS/MS analysis. In kind it is ADME, cell-free. Conditions: read-out: Stability.
Series [7] in a line: Stability in human plasma assessed as compound remaining incubated for 10 mins by LC-MS/MS analysis. The settings on record: read-out: Stability. In kind it is ADME, cell-free.
Series [8] is described as follows: Stability in human plasma assessed as compound remaining incubated for 30 mins by LC-MS/MS analysis. Conditions: read-out: Stability. Format: ADME, cell-free.
The subject of series [9] is Influenza A virus. Nature of the series: microbe, parasite or virus in culture. Conditions: A/Puerto Rico/8/1934(H1N1), MDCK, 72 h.
The nature of series [10]: AUC in Sprague-Dawley rat at 10 mg/kg, iv measured upto 24 hrs by LC-MS/MS analysis. In kind it is ADME, organism-based. Details: dose 10 mg/kg, time < 24 hr, route intravenous. The settings on record: in vivo.
Series [11] can be described thus: Half life in Sprague-Dawley rat at 10 mg/kg, iv measured upto 24 hrs by LC-MS/MS analysis. Format: ADME, organism-based. The settings on record: in vivo.
A short description of series [12]: Oral bioavailability in Sprague-Dawley rat at 50 mg/kg measured upto 24 hrs by LC-MS/MS analysis. In kind it is ADME, organism-based. The settings on record: in vivo.
Series [13] is described as follows: in vitro. The settings on record: rat, liver microsomes. A general note: Microsomes from liver hold many membrane-bound enzymes, among them those of drug oxidation.
Series [14] in a line: in vitro. Conditions: human, liver microsomes.
Series [15] in a line: Tmax in Sprague-Dawley rat at 50 mg/kg, po measured upto 24 hrs by LC-MS/MS analysis. In kind it is ADME, organism-based. The settings on record: in vivo.
Series [16] is described as follows: Cmax in Sprague-Dawley rat at 50 mg/kg, po measured upto 24 hrs by LC-MS/MS analysis. Format: ADME, organism-based. Details: dose 50 mg/kg, route oral. Conditions: in vivo.
Series [17] in a line: in vitro. Conditions: rat, liver microsomes. This is another data set of the same source.
Series [18] in a line: Half life in Sprague-Dawley rat at 50 mg/kg, po measured upto 24 hrs by LC-MS/MS analysis. In kind it is ADME, organism-based. Conditions: in vivo.
In series [19] the target is Neuraminidase (Influenza A virus (A/Puerto Rico/8/1934(H1N1)), UniProt P03468). Details: species or system Influenza A virus (A/Anhui/1/2005(H5N1)).
Series [20] in a line: MRT in Sprague-Dawley rat at 10 mg/kg, iv measured upto 24 hrs by LC-MS/MS analysis. Format: ADME, organism-based. The settings on record: in vivo.
Series [21] is described as follows: MRT in Sprague-Dawley rat at 50 mg/kg, po measured upto 24 hrs by LC-MS/MS analysis. Conditions: in vivo. Format: ADME, organism-based.
The nature of series [22]: AUC in Sprague-Dawley rat at 50 mg/kg, po measured upto 24 hrs by LC-MS/MS analysis. In kind it is ADME, organism-based. Details: dose 50 mg/kg, time < 24 hr, route oral. The settings on record: in vivo.
Series [23] can be described thus: in vitro. Conditions: human, liver microsomes. This is another data set of the same source.
The nature of series [24]: Bioavailability in Sprague-Dawley rat at 10 mg/kg, iv measured upto 24 hrs by LC-MS/MS analysis. In kind it is ADME, organism-based. The settings on record: in vivo.
Series [25] relates to Influenza A virus. Nature of the series: microbe, parasite or virus in culture. The settings on record: (A/LiaoNing-ZhenXing/1109/2010(H1N1), MDCK, 72 h.
Series [26] is described as follows: in vitro. The settings on record: dog, MDCK cells.
A short description of series [27]: Inhibition of Influenza A virus A/Taiwan/3446/2002(H3N2) Neuraminidase using MU-NANA as substrate preincubated for 30 mins followed by substrate addition and measured after 1 hr by spectrofluorometry relative to control.
Series [28] concerns the target Neuraminidase (Influenza A virus (A/Puerto Rico/8/1934(H1N1)), UniProt P03468). Kind of series: Inhibition of Influenza A virus A/WSN/1933(H1N1) Neuraminidase using MU-NANA as substrate preincubated for 30 mins followed by substrate addition and measured after 1 hr by spectrofluorometry relative to control.

Broadly, the inhibition is the change of the read-out against control, counted positive when it falls. One may read the EC50 as the concentration at which the effect is half-maximal. The term AUC denotes the area under the concentration-time curve, a measure of exposure. Low values mean low exposure, high ones high exposure. As a reminder, the half-life is the time needed for the level to fall by half in the phase considered. Low readings indicate fast loss, high ones slow loss. A word on the bioavailability: it is dose-corrected exposure relative to a reference, in per cent. For orientation: Tmax means the time from dosing to the highest level. As usually defined, the Cmax is the highest concentration seen after dosing. As usually defined, the IC50 is the point on the concentration scale where inhibition reaches its midpoint. Read a high IC50 as a need for much substance. In general, MRT refers to a mean duration of stay, worked out from the concentration-time curve. In general, CC50 refers to the concentration that lowers cell viability or growth by half.

SMILES strings stand for the structures. Some results are limits rather than exact numbers.

Neuraminidase (Influenza A virus (A/Puerto Rico/8/1934(H1N1))), sequence (P03468 whole entry): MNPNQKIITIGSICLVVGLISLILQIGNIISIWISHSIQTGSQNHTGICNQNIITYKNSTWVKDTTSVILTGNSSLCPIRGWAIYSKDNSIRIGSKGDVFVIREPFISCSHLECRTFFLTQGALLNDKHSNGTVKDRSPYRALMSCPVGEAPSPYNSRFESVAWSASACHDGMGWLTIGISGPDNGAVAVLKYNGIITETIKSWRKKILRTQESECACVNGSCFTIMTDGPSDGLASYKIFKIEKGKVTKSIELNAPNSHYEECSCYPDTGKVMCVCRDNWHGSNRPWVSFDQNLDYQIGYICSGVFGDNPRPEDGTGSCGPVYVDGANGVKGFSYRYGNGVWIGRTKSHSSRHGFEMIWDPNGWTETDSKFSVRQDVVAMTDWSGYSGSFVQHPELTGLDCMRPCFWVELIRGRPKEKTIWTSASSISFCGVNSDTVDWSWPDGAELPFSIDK
Neuraminidase (Influenza A virus (A/Puerto Rico/8/1934(H1N1)), UniProt P03468), sequence (P03468 whole entry): as above

As to `CCC(CC)O[C@@H]1C=C(C(=O)O)C[C@H](Nc2nc(OC)ccc2N)[C@H]1NC(C)=O`, the figures for the inhibition in series [1] and in series [2] were 41.3% and 81.4%, respectively.

With `CCC(CC)O[C@@H]1C=C(C(=O)O)C[C@H](Nc2nc(OC)ccc2[N+](=O)[O-])[C@H]1NC(C)=O`, the inhibition amounted to 82.9% in series [2] and 27.9% in series [3].

Regarding `CCC(CC)O[C@@H]1C=C(C(=O)O)C[C@H](Nc2ccc(NC(=O)c3ccccc3)cn2)[C@H]1NC(C)=O`, the inhibition in [2] stood at 18.6%.

On to `CCC(CC)O[C@@H]1C=C(C(=O)O)C[C@H](Nc2nc(OC)ccc2NC(=O)c2ccccc2)[C@H]1NC(C)=O`, for which the inhibition in [2] stood at 70.6%.

On to `CCC(CC)O[C@@H]1C=C(C(=O)O)C[C@H](Nc2ccc(NC(C)=O)cn2)[C@H]1NC(C)=O`, for which the inhibition in series [2] was 38.7%; in series [3], 9.6%.

`CCCC(=O)Nc1cccnc1N[C@H]1CC(C(=O)O)=C[C@@H](OC(CC)CC)[C@@H]1NC(C)=O`: the inhibition in series [2] turned out to be 22.1%.

As for `CCC(CC)O[C@@H]1C=C(C(=O)O)C[C@H](Nc2nccc(C)c2N)[C@H]1NC(C)=O`, the figures for the inhibition in [1] and in [2] were 10.7% and 24.2%, respectively.

The molecule `CCC(CC)O[C@@H]1C=C(C(=O)O)C[C@H](Nc2ncc(Br)cc2NC(C)=O)[C@H]1NC(C)=O` registered an inhibition in series [2] of 46.7%.

Consider `CCC(=O)Nc1ccc(OC)nc1N[C@H]1CC(C(=O)O)=C[C@@H](OC(CC)CC)[C@@H]1NC(C)=O`, for which, in series [2], the inhibition is 10.7%.

Take `CCC(CC)O[C@@H]1C=C(C(=O)O)C[C@H](Nc2ncccc2[N+](=O)[O-])[C@H]1NC(C)=O`: the inhibition came to 76.1% in series [2] and 9.1% in [3].

Consider `CCCC(=O)Nc1cc(Br)cnc1N[C@H]1CC(C(=O)O)=C[C@@H](OC(CC)CC)[C@@H]1NC(C)=O`, for which the inhibition in series [2] is 41.5%; in series [3], 6.8%.

Turning to `CC(C)[N+](C)(CCOC(=O)C1c2ccccc2Oc2ccccc21)C(C)C` [PROPANTHELINE BROMIDE], the remaining at 2 h in series [4] was determined as 0.7%. Besides, the remaining at 1 h in [5] was determined as 10.1%. Further, the remaining at 0 h in [6] is 100%. For the same molecule, the remaining at 10 min in series [7] stood at 68.2%. Further, in series [8], the remaining at 0.5 h turned out to be 34.8%.

Molecule `CCC(CC)O[C@@H]1C=C(C(=O)O)C[C@H](Nc2ncc(Br)cc2[N+](=O)[O-])[C@H]1NC(C)=O` registered an inhibition in series [2] of 54.3%.

`CCC(CC)O[C@@H]1C=C(C(=O)O)C[C@H](Nc2ncccc2NC(=O)c2ccccc2)[C@H]1NC(C)=O` returned an inhibition in series [2] of 7.6%.

Consider `CCC(CC)O[C@@H]1C=C(C(=O)O)C[C@H](Nc2ccc([N+](=O)[O-])cn2)[C@H]1NC(C)=O`, for which the inhibition was 87.1% in series [2] and 8.9% in series [3].

Consider `CCC(CC)O[C@@H]1C=C(C(=O)O)C[C@H](Nc2ncc(Br)cc2N)[C@H]1NC(C)=O`, for which the inhibition in series [1] stood at 26.8%; in [2], 55.9%.

As for `CCC(CC)O[C@@H]1C=C(C(=O)O)C[C@H](Nc2ncccc2N)[C@H]1NC(C)=O`, the inhibition in series [1] is 87.6%; in series [2] it was 92.4%. Besides, the remaining at 2 h in [4] is 102%. Further, the EC50 in series [9] came to 12.7 µM; in series [25], 14.3 µM. In addition, the results for the AUC at 24 h in [10] and in series [22] were 4540 ng·h/mL and 358 ng·h/mL, respectively. Further, the half-life is 30.6 min in series [11] and 94.2 min in series [18]. Also, the bioavailability in series [12] came out at 1.58%. The half-life at 1 h in series [13] and in series [23] was > 145 min throughout. Moreover, the remaining at 1 h was determined as 87.5% in [14], 113% in series [5] and 85.5% in series [17]. Moreover, the Tmax in series [15] turned out to be 19.8 min. The molecule also had a Cmax in series [16] of 253 ng/mL. The molecule also registered an IC50 in series [19] of 0.32 µM. Further, the remaining at 0 h in series [6] was 100%. For the same molecule, the remaining at 10 min in series [7] came to 95.1%. Further, the remaining at 0.5 h in series [8] came out at 103%. For the same molecule, the values for the MRT in series [20] and in [21] were 11.4 min and 127 min, respectively. For the same molecule, the F in series [24] was determined as 100%.

In the case of `CCC(CC)O[C@@H]1C=C(C(=O)O)C[C@H](Nc2ncc(Br)cc2NC(=O)C(C)C)[C@H]1NC(C)=O`, the inhibition in series [2] worked out at 79.3%; in series [3] it was 19.1%.

As to `O=C(O)Cc1ccccc1Nc1c(Cl)cccc1Cl` [DICLOFENAC], in series [13], the half-life at 1 h turned out to be 17.1 min.

In series [2], `CCC(CC)O[C@@H]1C=C(C(=O)O)C[C@H](Nc2ncc(Br)cc2NC(=O)c2ccccc2)[C@H]1NC(C)=O` gave an inhibition of 36.9%.

Regarding `CCC(CC)O[C@@H]1C=C(C(=O)O)C[C@H](Nc2nc(OC)ccc2NC(C)=O)[C@H]1NC(C)=O`, the inhibition was 75.7% in series [2] and 10.1% in series [3].

With `CCC(CC)O[C@@H]1C=C(C(=O)O)C[C@H](Nc2ccc(N)cn2)[C@H]1NC(C)=O`, the inhibition in series [1] came to 30%; in series [2], 67.7%.

`CCC(CC)O[C@@H]1C=C(C(=O)O)C[C@H](N)[C@H]1NC(C)=O` [OSELTAMIVIR CARBOXYLATE]: the figures for the EC50 in series [9] and in [25] were 2.49 µM and 67.5 µM, respectively. Besides, in series [26], the CC50 at 72 h is > 1000 µM.

`CCC(CC)O[C@@H]1C=C(C(=O)O)C[C@H](Nc2ncc(C)cc2N)[C@H]1NC(C)=O`: the figures for the inhibition in series [1] and in [2] were 25.9% and 46.8%, respectively.

Turning to `CCCC(=O)Nc1ccc(OC)nc1N[C@H]1CC(C(=O)O)=C[C@@H](OC(CC)CC)[C@@H]1NC(C)=O`, the figures for the inhibition in [2] and in series [3] were 76.3% and 16%, respectively.

Take `CC(=O)N[C@H]1[C@H]([C@H](O)[C@H](O)CO)OC(C(=O)O)=C[C@@H]1NC(=N)NC(=O)CSc1cccc2ccccc12`: the results for the IC50 in [27] and in series [28] were 0.0029 µM and 0.0023 µM, respectively.
